One block for each compound: values may come before it.
Experiments:
hDHODH = target: T1, hDHODH (Homo sapiens, UniProt Q02127); test: hDHODH enzyme inhibition assay (DCIP/UQ0, dihydroorotate-initiated); assay type: biochemical; settings: for inhibition at 10 µM: compound at 10 µM, 10 nM purified hDHODH; for IC50: three independent tests, determined if inhibition at 10 μM was greater than 50%;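 on all read-outs here: recombinant hDHODH (Met30–Arg396) in HEPES pH 8.0 buffer with KCl and Triton X-100, reaction started by 500 µM dihydroorotate, inhibition from rate with inhibitor relative to uninhibited rate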
T1 construct: The plasmid pET-19b–hDHODH (Met30-Arg396) was transformed; inferred from the pET-19b vector and from purification on a chelating column with imidazole elution) (N); made in house; host or cells: E. coli BL21 (DE3)
T1 sequence (Q02127 29-395 limits assumed): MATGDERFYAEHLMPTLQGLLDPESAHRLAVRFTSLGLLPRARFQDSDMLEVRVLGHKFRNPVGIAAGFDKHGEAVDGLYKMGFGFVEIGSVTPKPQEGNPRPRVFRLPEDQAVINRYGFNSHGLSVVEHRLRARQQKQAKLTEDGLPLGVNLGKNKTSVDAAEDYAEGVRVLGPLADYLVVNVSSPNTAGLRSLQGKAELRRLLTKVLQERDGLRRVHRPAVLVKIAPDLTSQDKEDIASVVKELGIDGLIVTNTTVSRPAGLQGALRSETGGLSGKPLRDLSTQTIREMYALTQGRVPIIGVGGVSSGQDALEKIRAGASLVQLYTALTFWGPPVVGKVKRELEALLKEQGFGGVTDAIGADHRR
Description: The purified hDHODH was diluted into a final concentration of 10 nM with the assay buffer contained 50 mM HEPES pH 8.0, 150 mM KCl, 0.1% Triton X-100. […] The dihydroorotate was added to a final concentration of 500 μM to initiate the reaction. […] Inhibition rate was calculated from (1-Vi/V0) × 100. For the determination of the IC50 values, eight to nine different concentrations were applied. Each inhibitor concentration point was tested in triplicate. IC50 values were calculated using the sigmoidal fitting option of the program Origin 8.0.

Structure (SMILES): COC(=O)/C(C#N)=C1\SCC(=O)N1c1ccc(C(C)(C)C)cc1 [Compound 7]
inhibition at 10 µM (hDHODH): 79.1% | IC50 (hDHODH): 1.75 µM

Structure (SMILES): COC(=O)/C(C#N)=C1\SCC(=O)N1c1ccc2ccccc2c1 [Compound 8]
inhibition at 10 µM (hDHODH): 80.3% | IC50 (hDHODH): 1.12 µM

Structure (SMILES): COC(=O)/C(C#N)=C1\SCC(=O)N1c1ccc(-c2ccccc2)cc1 [Compound 9, Methyl (Z)-2-(3-([1,1’-biphenyl]-4-yl)-4-oxothiazolidin-2-ylidene)-2-cyanoacetate]
inhibition at 10 µM (hDHODH): 73.8% | IC50 (hDHODH): 1.32 µM

Structure (SMILES): COC(=O)/C(C#N)=C1\SCC(=O)N1c1c(F)cc(-c2ccccc2)cc1F [Compound 11, Methyl (Z)-2-cyano-2-(3-(3,5-difluoro-[1,1’-biphenyl]-4-yl)-4-oxothiazolidin-2-ylidene)acetate]
inhibition at 10 µM (hDHODH): 33.9% | IC50 (hDHODH): > 10 µM

Structure (SMILES): COC(=O)/C(C#N)=C1\SCC(=O)N1c1ccc(Oc2ccccc2)cc1 [Compound 19, Methyl (Z)-2-cyano-2-(4-oxo-3-(4-phenoxyphenyl)thiazolidin-2-ylidene)acetate]
inhibition at 10 µM (hDHODH): 52% | IC50 (hDHODH): 9.43 µM

Structure (SMILES): COC(=O)/C(C#N)=C1\SCC(=O)N1c1ccc(Oc2cccc(C(F)(F)F)c2)cc1 [Compound 21]
melting point: 159.7 to 161.3 °C | inhibition at 10 µM (hDHODH): 29.7% | IC50 (hDHODH): > 10 µM

Structure (SMILES): COC(=O)/C(C#N)=C1\SCC(=O)N1c1ccc(Oc2ccc(C(C)(C)C)cc2)cc1 [Compound 22, Methyl (Z)-2-(3-(4-(4-(tert-butyl)phenoxy)phenyl)-4-oxothiazolidin-2-ylidene)-2-cyanoacetate]
melting point: 212.9 to 213.9 °C | inhibition at 10 µM (hDHODH): 18.1% | IC50 (hDHODH): > 10 µM

Structure (SMILES): COC(=O)/C(C#N)=C1\SCC(=O)N1c1cccc(Oc2ccccc2)c1 [Compound 23, Methyl (Z)-2-cyano-2-(4-oxo-3-(3-phenoxyphenyl)thiazolidin-2-ylidene)acetate]
melting point: 183.4 to 184.3 °C | hDHODH inhibitory activity in words (hDHODH): inactive | inhibition at 10 µM (hDHODH): 34.4% | IC50 (hDHODH): > 10 µM

Structure (SMILES): COC(=O)/C(C#N)=C1\SCC(=O)N1c1ccc(OCc2ccccc2)cc1 [Compound 24, Methyl (Z)-2-(3-(4-(benzyloxy)phenyl)-4-oxothiazolidin-2-ylidene)-2-cyanoacetate]
inhibition at 10 µM (hDHODH): 55.4% | IC50 (hDHODH): 4.32 µM

Structure (SMILES): COC(=O)/C(C#N)=C1\SCC(=O)N1c1ccc(OCc2ccccc2C(=O)O)cc1 [Compound 25, (Z)-2-((4-(2-(1-Cyano-2-methoxy-2-oxoethylidene)-4-oxothiazolidin-3-yl)phenoxy)methyl)benzoic acid]
inhibition at 10 µM (hDHODH): 29.9% | IC50 (hDHODH): > 10 µM

Structure (SMILES): COC(=O)/C(C#N)=C1\SCC(=O)N1c1ccc(OCc2cccc(C(=O)O)c2)cc1 [Compound 26, (Z)-3-((4-(2-(1-Cyano-2-methoxy-2-oxoethylidene)-4-oxothiazolidin-3-yl)phenoxy)methyl)benzoic acid]
melting point: 233.2 to 234.1 °C | inhibition at 10 µM (hDHODH): 36.2% | IC50 (hDHODH): > 10 µM

Structure (SMILES): COC(=O)/C(C#N)=C1\SCC(=O)N1c1ccc(C(=O)NC2CCCCC2)cc1 [Compound 27, Methyl (Z)-2-cyano-2-(3-(4-(cyclohexylcarbamoyl)phenyl)-4-oxothiazolidin-2-ylidene)acetate]
inhibition at 10 µM (hDHODH): 41.7% | IC50 (hDHODH): > 10 µM

Structure (SMILES): COC(=O)/C(C#N)=C1\SCC(=O)N1c1ccc(C(=O)Nc2ccccc2)cc1 [Compound 28, Methyl (Z)-2-cyano-2-(4-oxo-3-(4-(phenylcarbamoyl)phenyl)thiazolidin-2-ylidene)acetate]
melting point: 194.9 to 195.6 °C | inhibition at 10 µM (hDHODH): 69% | IC50 (hDHODH): 2.98 µM

Structure (SMILES): COC(=O)/C(C#N)=C1\SCC(=O)N1c1ccc(C(=O)Nc2ccccc2C)cc1 [Compound 29, Methyl (Z)-2-cyano-2-(4-oxo-3-(4-(o-tolylcarbamoyl)phenyl)thiazolidin-2-ylidene)acetate]
melting point: 274.1 to 275 °C | inhibition at 10 µM (hDHODH): 47% | IC50 (hDHODH): > 10 µM

Structure (SMILES): COC(=O)/C(C#N)=C1\SCC(=O)N1c1ccc(C(=O)Nc2ccc(F)cc2)cc1 [Compound 30, Methyl (Z)-2-cyano-2-(3-(4-((4-fluorophenyl)carbamoyl)phenyl)-4-oxothiazolidin-2-ylidene)acetate]
melting point: 231.7 to 232.5 °C | inhibition at 10 µM (hDHODH): 71.3% | IC50 (hDHODH): 3.01 µM

Structure (SMILES): COC(=O)/C(C#N)=C1\SCC(=O)N1c1ccc(C(=O)Nc2ccc(F)c(C#N)c2)cc1 [Compound 31, Methyl (Z)-2-cyano-2-(3-(4-((3-cyano-4-fluorophenyl)carbamoyl)phenyl)-4-oxothiazolidin-2-ylidene)acetate]
melting point: 264.2 to 265.1 °C | inhibition at 10 µM (hDHODH): 53.6% | IC50 (hDHODH): 8.56 µM

Structure (SMILES): COC(=O)/C(C#N)=C1\SCC(=O)N1c1ccc(C(=O)Nc2ccc(Cl)cc2)cc1 [Compound 32, Methyl (Z)-2-(3-(4-((4-chlorophenyl)carbamoyl)phenyl)-4-oxothiazolidin-2-ylidene)-2-cyanoacetate]
melting point: 280.1 to 280.9 °C | inhibition at 10 µM (hDHODH): 52.7% | IC50 (hDHODH): 7.5 µM

Structure (SMILES): COC(=O)/C(C#N)=C1\SCC(=O)N1c1ccc(C(=O)Nc2ccc(Br)cc2)cc1 [Compound 33, Methyl (Z)-2-(3-(4-((4-bromophenyl)carbamoyl)phenyl)-4-oxothiazolidin-2-ylidene)-2-cyanoacetate]
melting point: 306.2 to 307.1 °C | inhibition at 10 µM (hDHODH): 42% | IC50 (hDHODH): > 10 µM

Structure (SMILES): COC(=O)/C(C#N)=C1\SCC(=O)N1c1ccc(C(=O)Nc2ccc(I)cc2)cc1 [Compound 34, Methyl (Z)-2-cyano-2-(3-(4-((4-iodophenyl)carbamoyl)phenyl)-4-oxothiazolidin-2-ylidene)acetate]
melting point: 315.8 to 316.6 °C | inhibition at 10 µM (hDHODH): 38.1% | IC50 (hDHODH): > 10 µM

Structure (SMILES): COC(=O)/C(C#N)=C1\SCC(=O)N1c1ccc(C(=O)Nc2ccc(C(F)(F)F)cc2)cc1 [Compound 35, Methyl (Z)-2-cyano-2-(4-oxo-3-(4-((4-(trifluoromethyl)phenyl)carbamoyl)phenyl)thiazolidin-2-ylidene) acetate]
melting point: 264.2 to 265.1 °C | inhibition at 10 µM (hDHODH): 24.5% | IC50 (hDHODH): > 10 µM

Structure (SMILES): COC(=O)/C(C#N)=C1\SCC(=O)N1c1ccc(C(=O)Nc2ccc(C(C)(C)C)cc2)cc1 [Compound 37, Methyl (Z)-2-(3-(4-((4-(tert-butyl)phenyl)carbamoyl)phenyl)-4-oxothiazolidin-2-ylidene)-2-cyanoacetate]
melting point: 256.1 to 257 °C | inhibition at 10 µM (hDHODH): 75.6% | IC50 (hDHODH): 1.45 µM

Further lines, results first:

inhibition at 10 µM (hDHODH): 58.8% | IC50 (hDHODH): 3.52 µM
Structure (SMILES): COC(=O)/C(C#N)=C1\SCC(=O)N1c1ccc(-c2ccccc2)cc1F [Compound 10, Methyl (Z)-2-cyano-2-(3-(3-fluoro-[1,1’-biphenyl]-4-yl)-4-oxothiazolidin-2-ylidene)acetate]

inhibition at 10 µM (hDHODH): 57.6% | IC50 (hDHODH): 6.04 µM
Structure (SMILES): COC(=O)/C(C#N)=C1\SCC(=O)N1c1ccc(-c2ccccc2C)cc1F [Compound 12, Methyl (Z)-2-cyano-2-(3-(3-fluoro-2’-methyl-[1,1’-biphenyl]-4-yl)-4-oxothiazolidin-2-ylidene)acetate]

inhibition at 10 µM (hDHODH): 54.7% | IC50 (hDHODH): 6.64 µM
Structure (SMILES): COC(=O)/C(C#N)=C1\SCC(=O)N1c1ccc(-c2ccccc2OC)cc1F [Compound 13, Methyl (Z)-2-cyano-2-(3-(3-fluoro-2’-methoxy-[1,1’-biphenyl]-4-yl)-4-oxothiazolidin-2-ylidene)acetate]

inhibition at 10 µM (hDHODH): 63.3% | IC50 (hDHODH): 5.42 µM
Structure (SMILES): COC(=O)/C(C#N)=C1\SCC(=O)N1c1ccc(-c2cccc(OC)c2)cc1F [Compound 14, Methyl (Z)-2-cyano-2-(3-(3-fluoro-3’-methoxy-[1,1’-biphenyl]-4-yl)-4-oxothiazolidin-2-ylidene)acetate]

melting point: 177.1 to 177.3 °C | inhibition at 10 µM (hDHODH): 55.4% | IC50 (hDHODH): 6.86 µM
Structure (SMILES): COC(=O)/C(C#N)=C1\SCC(=O)N1c1ccc(-c2ccc(OC)cc2)cc1F [Compound 15, Methyl (Z)-2-cyano-2-(3-(3-fluoro-4’-methoxy-[1,1’-biphenyl]-4-yl)-4-oxothiazolidin-2-ylidene)acetate]

melting point: 191.2 to 191.3 °C | inhibition at 10 µM (hDHODH): 50.2% | IC50 (hDHODH): 8.39 µM
Structure (SMILES): COC(=O)/C(C#N)=C1\SCC(=O)N1c1ccc(-c2cccc(C#N)c2)cc1F [Compound 16, Methyl (Z)-2-cyano-2-(3-(3’-cyano-3-fluoro-[1,1’-biphenyl]-4-yl)-4-oxothiazolidin-2-ylidene)acetate]

melting point: 179.2 to 179.9 °C | inhibition at 10 µM (hDHODH): 50.7% | IC50 (hDHODH): 4.35 µM
Structure (SMILES): COC(=O)/C(C#N)=C1\SCC(=O)N1c1ccc(-c2cccc([N+](=O)[O-])c2)cc1F [Compound 17, Methyl (Z)-2-cyano-2-(3-(3-fluoro-3’-nitro-[1,1’-biphenyl]-4-yl)-4-oxothiazolidin-2-ylidene) acetate]

inhibition at 10 µM (hDHODH): 53.1% | IC50 (hDHODH): 9.29 µM
Structure (SMILES): COC(=O)/C(C#N)=C1\SCC(=O)N1c1ccc(-c2cccc(C(F)(F)F)c2)cc1F [Compound 18, Methyl (Z)-2-cyano-2-(3-(3-fluoro-3’-(trifluoromethyl)-[1,1’-biphenyl]-4-yl)-4-oxothiazolidin-2-ylidene) -acetate]

melting point: 181.2 to 182.1 °C | inhibition at 10 µM (hDHODH): 44.7% | IC50 (hDHODH): > 10 µM
Structure (SMILES): COC(=O)/C(C#N)=C1\SCC(=O)N1c1ccc(Oc2ccccc2OC)cc1 [Compound 20, Methyl (Z)-2-cyano-2-(3-(4-(2-methoxyphenoxy)phenyl)-4-oxothiazolidin-2-ylidene)acetate]

melting point: 268.9 to 269.7 °C | inhibition at 10 µM (hDHODH): 55.4% | IC50 (hDHODH): 5.01 µM
Structure (SMILES): COC(=O)/C(C#N)=C1\SCC(=O)N1c1ccc(C(=O)Nc2ccc(OC)cc2)cc1 [Compound 36, Methyl (Z)-2-cyano-2-(3-(4-((4-methoxyphenyl)carbamoyl)phenyl)-4-oxothiazolidin-2-ylidene)acetate]
